Data as given in the supplement of paper PMC9663587.

Tests used:
Experiment in all cases: GRmax, 72 h; higher = less effect;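 further: breast cell lines in 384-well plates, nine doses across a 10^4 range, Dye Drop imaging of viable cells vs DMSO and time-zero plates, GR 0 means no net growth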
SUM52PE = tested on: SUM52PE
MDAMB415 = tested on: MDAMB415
MGH312 = tested on: MGH312
MCF12A = tested on: MCF12A
SUM159 = tested on: SUM159
AU565 = tested on: AU565
HCC1143 = tested on: HCC1143
MDAMB468 = tested on: MDAMB468
BT20 = tested on: BT20
BT474 = tested on: BT474
MDAMB330 = tested on: MDAMB330
MCF10A = tested on: MCF10A
PDXHCI002 = tested on: PDXHCI002

| SMILES | GRmax, 72 h (SUM52PE) | GRmax, 72 h (MDAMB415) | GRmax, 72 h (MGH312) | GRmax, 72 h (MCF12A) | GRmax, 72 h (SUM159) | GRmax, 72 h (AU565) | GRmax, 72 h (HCC1143) | GRmax, 72 h (MDAMB468) | GRmax, 72 h (BT20) | GRmax, 72 h (BT474) | GRmax, 72 h (MDAMB330) | GRmax, 72 h (MCF10A) | GRmax, 72 h (PDXHCI002) |
| --- | --- | --- | --- | --- | --- | --- | --- | --- | --- | --- | --- | --- | --- |
| NC(=O)Nc1cc(-c2cccc(F)c2)sc1C(=O)N[C@H]1CCCNC1 [AZD7762] (max 10 µM) | -0.322 GR | -0.481 GR | -0.515 GR | -0.211 GR | -0.278 GR | -0.597 GR | -0.369 GR | -0.586 GR | -0.578 GR | 0.0014 GR | -0.607 GR | -0.18 GR | -0.582 GR |
| CC(C)NC[C@@H](C(=O)N1CCN(c2ncnc3c2[C@H](C)C[C@H]3O)CC1)c1ccc(Cl)cc1 [Ipatasertib/GDC0068] (max 10 µM) | 0.271 GR | -0.698 GR | -0.936 GR | 0.654 GR | 0.591 GR | 0.274 GR | 0.751 GR | 0.309 GR | 0.102 GR | -0.358 GR | -0.657 GR | 0.647 GR | 1.1 GR |
| C=CC(=O)Nc1ccc(C(=O)Nc2[nH]nc3c2CN(C(=O)N[C@H](CN(C)C)c2ccccc2)C3(C)C)cc1 [YKL-5-124] (max 10 µM) | 0.0084 GR | -0.0129 GR | -0.919 GR | 0.0267 GR | -0.137 GR | -0.563 GR | -0.0844 GR | -0.493 GR | -0.153 GR | -0.566 GR | -0.765 GR | -0.162 GR | -0.129 GR |
| CCc1cnn2c(NCc3ccc[n+]([O-])c3)cc(N3CCCC[C@H]3CCO)nc12 (max 1 µM) | -0.33 GR | -0.488 GR | -0.951 GR | -0.327 GR | -0.122 GR | -0.752 GR | -0.253 GR | -0.413 GR | -0.698 GR | -0.762 GR | -0.504 GR | -0.23 GR | -0.361 GR |
| CC(=O)c1c(C)c2cnc(Nc3ccc(N4CCN(CCOCCOCCOCCNC(=O)COc5cccc6c5C(=O)N(C5CCC(=O)NC5=O)C6=O)CC4)cn3)nc2n(C2CCCC2)c1=O (stereo unspecified) [BSJ-03-123] (max 10 µM) | 0.227 GR | 0.149 GR | -0.894 GR | 0.129 GR | -0.042 GR | -0.386 GR | -0.0159 GR | -0.0298 GR | -0.005 GR | -0.0209 GR | -0.0919 GR | -0.113 GR | -0.0835 GR |
| CN(C)C/C=C/C(=O)Nc1ccc(O[C@@H]2CCC[C@@H](Nc3ncc(Cl)c(-c4c[nH]c5ccccc45)n3)C2)cc1 [BSJ-01-175] (max 10 µM) | -0.673 GR | -0.491 GR | -0.985 GR | -0.292 GR | -0.473 GR | -0.777 GR | -0.449 GR | -0.617 GR | -0.669 GR | -0.962 GR | -0.971 GR | -0.566 GR | -0.297 GR |
| Nc1ccc(-c2ccc3ncc4ccc(=O)n(-c5cccc(C(F)(F)F)c5)c4c3c2)cn1 [Torin2] (max 1 µM) | -0.351 GR | -0.372 GR | -0.772 GR | 0.0112 GR | 0.172 GR | -0.39 GR | -0.153 GR | -0.0415 GR | -0.289 GR | -0.648 GR | -0.84 GR | 0.128 GR | -0.102 GR |
| CC[C@@H]1C(=O)N(C)c2cnc(Nc3ccc(C(=O)N[C@H]4CC[C@H](N5CCN(CC6CC6)CC5)CC4)cc3OC)nc2N1C(C)C [Volasertib/BI6727] (max 1 µM) | -0.409 GR | -0.314 GR | -0.675 GR | -0.0126 GR | 0.0326 GR | -0.473 GR | -0.345 GR | -0.449 GR | -0.534 GR | -0.284 GR | -0.261 GR | -0.0887 GR | -0.589 GR |
| O=C1NC(=O)[C@@H](c2cn3c4c(cccc24)CCC3)[C@@H]1c1c[nH]c2ccccc12 [Tivantinib/ARQ197] (max 10 µM) | -0.354 GR | -0.184 GR | -0.537 GR | -0.0779 GR | -0.281 GR | -0.514 GR | -0.312 GR | -0.455 GR | -0.488 GR | -0.323 GR | -0.321 GR | -0.15 GR | -0.487 GR |
| CN1CC[C@H](c2c(O)cc(O)c3c(=O)cc(-c4ccccc4Cl)oc23)[C@H](O)C1 [Flavopiridol] (max 1 µM) | -0.193 GR | -0.303 GR | -0.945 GR | -0.15 GR | -0.051 GR | -0.69 GR | -0.316 GR | -0.351 GR | -0.639 GR | -0.751 GR | -0.892 GR | -0.67 GR | -0.143 GR |
| Cc1nc(Nc2ncc(C(=O)Nc3c(C)cccc3Cl)s2)cc(N2CCN(CCO)CC2)n1 [Dasatinib] (max 10 µM) | -0.322 GR | 0.342 GR | 0.0774 GR | -0.0434 GR | 0.732 GR | 0.26 GR | 0.257 GR | 0.339 GR | 0.283 GR | -0.42 GR | 0.556 GR | -0.0146 GR | 0.0322 GR |
| Cc1nc(-c2cn3c(n2)-c2ccc(-c4cnn(C(C)(C)C(N)=O)c4)cc2OCC3)n(C(C)C)n1 [Taselisib/GDC0032] (max 10 µM) | -0.0187 GR | -0.792 GR | -0.927 GR | 0.074 GR | 0.187 GR | -0.531 GR | -0.0942 GR | 0.0046 GR | -0.375 GR | -0.989 GR | -0.924 GR | 0.0593 GR | -0.137 GR |
| Cc1nc(NC(=O)N2CCC[C@H]2C(N)=O)sc1-c1ccnc(C(C)(C)C(F)(F)F)c1 [Alpelisib/BYL719] (max 10 µM) | 0.0427 GR | 0.613 GR | 0.104 GR | 0.825 GR | 0.602 GR | -0.472 GR | 0.48 GR | 0.714 GR | -0.118 GR | -0.809 GR | -0.555 GR | 0.579 GR | 0.63 GR |
| COc1cc(N2CCN(C)CC2)ccc1Nc1ncc2c(n1)N(C)c1ccccc1C(=O)N2CC(F)(F)F [FMF-03-146-1] | 1.04 GR | 0.959 GR | 0.866 GR | 0.95 GR | 0.898 GR | 0.63 GR | 0.815 GR | 0.706 GR | 0.973 GR | 1.07 GR | 0.866 GR | 0.99 GR | 1.02 GR |
| CN(C)CC[C@H](CSc1ccccc1)Nc1ccc(S(=O)(=O)NC(=O)c2ccc(N3CCN(Cc4ccccc4-c4ccc(Cl)cc4)CC3)cc2)cc1[N+](=O)[O-] [ABT-737] (max 10 µM) | 0.441 GR | 0.352 GR | 0.0409 GR | 0.979 GR | 0.781 GR | 0.261 GR | 0.376 GR | 0.142 GR | 0.593 GR | 0.181 GR | -0.104 GR | 0.817 GR | 0.146 GR |
| CO[C@@H](C)Cn1c(=O)n(C)c2cnc3ccc(-c4cncc(C(C)(C)O)c4)cc3c21 (max 10 µM) | -0.125 GR | -0.473 GR | -0.795 GR | 0.133 GR | 0.0637 GR | -0.533 GR | -0.203 GR | -0.211 GR | -0.645 GR | -0.844 GR | -0.799 GR | 0.108 GR | -0.0949 GR |
| CN(C)C/C=C/C(=O)Nc1ccc(C(=O)Nc2cccc(Nc3ncc(Cl)c(-c4c[nH]c5ccccc45)n3)c2)cc1 [THZ1] (max 1 µM) | -0.437 GR | -0.421 GR | -0.939 GR | -0.312 GR | -0.122 GR | -0.64 GR | -0.318 GR | -0.377 GR | -0.385 GR | -0.658 GR | -0.945 GR | -0.525 GR | -0.193 GR |
| CS(=O)(=O)N1CCN(Cc2cc3nc(-c4cccc5[nH]ncc45)nc(N4CCOCC4)c3s2)CC1 [Pictilisib/GDC0941] (max 10 µM) | -0.205 GR | -0.687 GR | -0.923 GR | 0.331 GR | 0.2 GR | -0.405 GR | -0.129 GR | -0.0613 GR | -0.165 GR | -0.828 GR | -0.817 GR | 0.193 GR | -0.0101 GR |
| CN1CCN(C(=O)c2ccc3cc(CCNc4ncnc5ccc(C#N)cc45)ccc3c2)CC1 [senexin b] (max 10 µM) | 0.742 GR | 0.609 GR | 0.168 GR | 0.776 GR | 0.881 GR | 0.76 GR | 0.452 GR | 0.132 GR | 0.175 GR | 0.107 GR | 0.466 GR | 0.851 GR | 1.06 GR |
| CC1(N)CCN(c2cnc(-c3cccc(Cl)c3Cl)c(N)n2)CC1 [SHP099] (max 10 µM) | 0.937 GR | 0.75 GR | 0.976 GR | 0.929 GR | 0.821 GR | 0.97 GR | 0.796 GR | 0.567 GR | 0.914 GR | 0.889 GR | 0.444 GR | 0.571 GR | 0.63 GR |
| CNC(=O)c1cccc(-c2ccc3c(N4CCOC[C@@H]4C)nc(N4CCOC[C@@H]4C)nc3n2)c1 [AZD2014] (max 10 µM) | -0.0804 GR | -0.138 GR | -0.693 GR | 0.147 GR | 0.113 GR | -0.0212 GR | 0.182 GR | 0.23 GR | 0.151 GR | -0.421 GR | -0.733 GR | 0.183 GR | 0.489 GR |
| O=C(c1cc(Cc2n[nH]c(=O)c3ccccc23)ccc1F)N1CCN(C(=O)C2CC2)CC1 [Olaparib/AZD2281] (max 10 µM) | 0.88 GR | 0.816 GR | 0.537 GR | 0.832 GR | 0.76 GR | 0.572 GR | 0.456 GR | 0.341 GR | 0.606 GR | 0.64 GR | 0.46 GR | 0.794 GR | 0.265 GR |
| O=C1NC(=NCc2cccs2)SC1=Cc1ccc2ncccc2c1 [R0-3306] (max 10 µM) | 0.114 GR | 0.914 GR | -0.249 GR | 0.458 GR | 0.101 GR | -0.185 GR | -0.114 GR | -0.271 GR | -0.274 GR | 0.144 GR | -0.159 GR | -0.0081 GR | 0.0529 GR |
| CC(C)n1nc(-c2ccc3oc(N)nc3c2)c2c(N)ncnc21 [INK128/MLN0128] (max 3.162 µM) | -0.161 GR | -0.338 GR | -0.89 GR | 0.103 GR | 0.214 GR | -0.496 GR | 0.0314 GR | 0.0572 GR | -0.0045 GR | -0.587 GR | -0.77 GR | 0.172 GR | 0.229 GR |
| Nc1cc(C(F)(F)F)c(-c2cc(N3CCOCC3)nc(N3CCOCC3)n2)cn1 [Buparlisib/NVP-BKM120] (max 10 µM) | -0.183 GR | -0.515 GR | -0.859 GR | -0.113 GR | -0.279 GR | -0.555 GR | -0.436 GR | -0.516 GR | -0.551 GR | -0.851 GR | -0.858 GR | -0.16 GR | -0.48 GR |
| COc1cccc(OCCCN)c1-c1cc(Nc2cnc(C#N)cn2)n[nH]1 | -0.292 GR | 0.69 GR | 0.887 GR | -0.167 GR | -0.0281 GR | 0.0394 GR | -0.117 GR | 0.6 GR | -0.2 GR | 0.715 GR | -0.183 GR | 0.351 GR | 0.705 GR |
| Cc1nn(C)c(COc2ccc(N3CCN(S(=O)(=O)N(C)C)CC3)cc2)c1-c1cccc2c(CCCOc3cccc4ccccc34)c(C(=O)O)n(CCN3CCOCC3)c12 (max 10 µM) | 0.373 GR | 0.881 GR | 0.775 GR | 0.993 GR | 0.83 GR | 0.611 GR | 0.672 GR | 0.93 GR | 0.821 GR | 0.69 GR | 0.881 GR | 0.953 GR | 0.981 GR |
